Source: patent US20260365653A1, “IRREVERSIBLE MUTEGFR INHIBITORS” (Bayer Aktiengesellschaft, priority 2022, published 2026)

What was measured:
[1] = biological target: T1, mutEGFR (D770_N771insSVD) (Homo sapiens, UniProt P00533, DUP768-770); assay: Exon20-Mutant-EGFR (D770_N771insSVD) kinase assay (TR-FRET); assay type: biochemical; details: mutEGFR (D770_N771insSVD) kinase assay IC50, Table 2a; D770_N771insSVD; 2 mM ATP
T1 construct: GST-EGFR #3 (SVD between D770 and N771); made in house; host or cells: Sf9 insect cells (baculovirus)
T1 sequence (P00533 with tags, fused parts or gaps DUP768-770): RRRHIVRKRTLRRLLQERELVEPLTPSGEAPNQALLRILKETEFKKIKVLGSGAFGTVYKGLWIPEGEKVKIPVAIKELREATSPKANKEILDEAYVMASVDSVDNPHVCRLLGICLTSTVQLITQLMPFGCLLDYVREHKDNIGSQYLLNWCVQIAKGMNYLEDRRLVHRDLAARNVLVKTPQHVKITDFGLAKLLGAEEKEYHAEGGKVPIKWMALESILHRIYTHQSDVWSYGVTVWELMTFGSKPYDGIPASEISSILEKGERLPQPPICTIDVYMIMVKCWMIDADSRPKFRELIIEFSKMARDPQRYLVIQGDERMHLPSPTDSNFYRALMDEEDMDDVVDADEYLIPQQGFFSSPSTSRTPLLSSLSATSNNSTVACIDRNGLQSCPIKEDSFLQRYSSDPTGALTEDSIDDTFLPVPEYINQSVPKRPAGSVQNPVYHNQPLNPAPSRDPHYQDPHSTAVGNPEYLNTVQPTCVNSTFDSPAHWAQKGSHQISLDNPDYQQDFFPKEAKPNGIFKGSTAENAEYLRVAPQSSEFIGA

[2] = biological target: T2, mutEGFR (D770_N771insNPG, T790) (Homo sapiens, UniProt P00533, INS770NPG/T790M); assay: mutEGFR (D770_N771insNPG, T790) kinase assay; assay type: biochemical; details: Table 2a, D770_N771insNPG
T2 construct: exact insNPG construct not described; in-house EGFR proteins were N-terminal GST fusions from baculovirus/insect cells (borders R669-A1210 given only for WT, insSVD, insASV)
T2 sequence (P00533 with tags, fused parts or gaps INS770NPG/T790M limits assumed): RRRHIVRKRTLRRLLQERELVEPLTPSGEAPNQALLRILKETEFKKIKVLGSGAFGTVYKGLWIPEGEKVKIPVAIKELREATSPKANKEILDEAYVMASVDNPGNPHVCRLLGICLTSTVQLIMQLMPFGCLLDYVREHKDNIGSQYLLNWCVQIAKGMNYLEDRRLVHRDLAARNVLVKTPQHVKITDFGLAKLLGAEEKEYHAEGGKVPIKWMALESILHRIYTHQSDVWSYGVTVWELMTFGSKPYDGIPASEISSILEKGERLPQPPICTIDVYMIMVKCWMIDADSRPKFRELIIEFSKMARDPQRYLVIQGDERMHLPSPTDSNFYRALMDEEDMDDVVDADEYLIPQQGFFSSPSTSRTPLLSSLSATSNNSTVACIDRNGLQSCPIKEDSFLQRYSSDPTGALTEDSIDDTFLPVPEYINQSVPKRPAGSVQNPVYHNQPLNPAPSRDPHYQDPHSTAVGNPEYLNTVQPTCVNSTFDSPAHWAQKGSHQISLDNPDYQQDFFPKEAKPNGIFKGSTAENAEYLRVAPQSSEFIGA
Description: The different EGFR proteins used in the biochemical kinase activity inhibition assays were generated inhouse by expression in insect cells using Baculo Virus system and subsequent purification as described in the following paragraphs.
The cDNAs encoding the various protein sequences from human EGFR human (P00533) were optimized for expression in eukaryotic cells and synthesized by the GeneArt Technology at Life Technologies.

BA/F3 (insSVD) cells = assay: Ba/F3-EGFR-insSVD cell survival assay (Cell Titer-Glo); assay type: cell-based; details: Mus musculus, BaF3, 48 h, Table 3a, cell survival, Cell Titer-Glo, with 10 ng/ml EGF, without IL-3
Method in brief: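 Ba/F3 cells stably expressing retroviral EGFR-insSVD or insSVD T790M, grown without IL-3 on 10 ng/ml EGF, 4000 cells/well. Compound pinned in, 48 h at 37° C. Viability by CellTiter-Glo luminescence.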

SMILES | IC50 [1] | IC50 [2] | IC50 (BA/F3 (insSVD) cells)
CN(C)C/C=C/C(=O)N1Cc2c(-c3ccncc3)c(-c3ccc(F)cc3)nn2CC1(C)C [Example 216, (2E)-4-(dimethylamino)-1-[2-(4-fluorophenyl)-6,6-dimethyl-3-(pyridin-4-yl)-6,7-dihydropyrazolo[1,5-a]pyrazin-5(4H)-yl]but-2-en-1-one] | 25 nM | 164 nM | 418 nM
CN(C)C/C=C/C(=O)N1Cc2c(-c3ccncc3)c(-c3ccc(Cl)cc3)nn2CC1(C)C [Example 217, (2E)-1-[2-(4-chlorophenyl)-6,6-dimethyl-3-(pyridin-4-yl)-6,7-dihydropyrazolo[1,5-a]pyrazin-5(4H)-yl]-4-(dimethylamino)but-2-en-1-one] | 6.2 nM | 59.8 nM | 277 nM
Cc1cc(-c2nn3c(c2-c2ccncc2)CN(C(=O)/C=C/CN(C)C)C(C)(C)C3)ccc1Cl [Example 218, (2E)-1-[2-(4-chloro-3-methylphenyl)-6,6-dimethyl-3-(pyridin-4-yl)-6,7-dihydropyrazolo[1,5-a]pyrazin-5(4H)-yl]-4-(dimethylamino)but-2-en-1-one] | 6.99 nM | 16.4 nM | 367 nM
C=CC(=O)N1Cc2c(-c3ccncc3)c(-c3ccc(F)cc3)nn2C(CCO)C1 (stereo not drawn) [Example 223, 1-(2-(4-fluorophenyl)-7-(2-hydroxyethyl)-3-(pyridin-4-yl)-6,7-dihydropyrazolo[1,5-a]pyrazin-5(4H)-yl) prop-2-en-1-one] | 0.336 nM | 1.25 nM | 18 nM
C=CC(=O)N1Cc2c(-c3ccncc3)c(-c3ccc(F)cc3)nn2C(CC(N)=O)C1 (stereo not drawn) [Example 224, 2-(5-acryloyl-2-(4-fluorophenyl)-3-(pyridin-4-yl)-4,5,6,7-tetrahydropyrazolo[1,5-a]pyrazin-7-yl) acetamide] | 2.38 nM | 7.59 nM | 338 nM
C=CC(=O)N1Cc2c(-c3ccncc3)c(-c3ccc(F)cc3)nn2C(CC(=O)NC)C1 (stereo not drawn) [Example 225, 2-(5-acryloyl-2-(4-fluorophenyl)-3-(pyridin-4-yl)-4,5,6,7-tetrahydropyrazolo[1,5-a]pyrazin-7-yl)-N-methylacetamide] | 10.1 nM | 36.6 nM | 386 nM
C=CC(=O)N1Cc2c(-c3ccncc3)c(-c3ccc(F)cc3)nn2C(CC(=O)N(C)C)C1 (stereo not drawn) [Example 226, 2-(5-acryloyl-2-(4-fluorophenyl)-3-(pyridin-4-yl)-4,5,6,7-tetrahydropyrazolo[1,5-a]pyrazin-7-yl)-N,N-dimethylacetamide] | 14 nM | 23.3 nM | 134 nM
C=CC(=O)N1Cc2c(-c3ccncc3)c(-c3ccc(Cl)cc3F)nn2CC1C (stereo not drawn) [Example 227, 1-(2-(4-chloro-2-fluorophenyl)-6-methyl-3-(pyridin-4-yl)-6,7-dihydropyrazolo[1,5-a]pyrazin-5(4H)-yl) prop-2-en-1-one] | 0.12 nM | 0.394 nM | 5.94 nM
C[C@H]1Cn2nc(-c3ccc(Cl)cc3)c(-c3ccncc3)c2CN1C(=O)/C=C/CN(C)C [Example 245, (2E)-1-[(6S)-2-(4-chlorophenyl)-6-methyl-3-(pyridin-4-yl)-6,7-dihydropyrazolo[1,5-a]pyrazin-5(4H)-yl]-4-(dimethylamino)but-2-en-1-one] | 0.113 nM | 0.262 nM | 11.9 nM
C[C@@H]1Cn2nc(-c3ccc(Cl)cc3)c(-c3ccncc3)c2CN1C(=O)/C=C/CN(C)C [Example 246, (2E)-1-[(6R)-2-(4-chlorophenyl)-6-methyl-3-(pyridin-4-yl)-6,7-dihydropyrazolo[1,5-a]pyrazin-5(4H)-yl]-4-(dimethylamino)but-2-en-1-one] | 0.131 nM | 0.203 nM | 33.7 nM
C=CC(=O)N1Cc2c(-c3ccnc4[nH]cc(C)c34)c(-c3ccc(C(F)(F)F)cc3)nn2C[C@@H]1C [Example 248, 1-[(6S)-6-methyl-3-(3-methyl-1H-pyrrolo[2,3-b]pyridin-4-yl)-2-[4-(trifluoromethyl)phenyl]-6,7-dihydropyrazolo[1,5-a]pyrazin-5(4H)-yl]prop-2-en-1-one] | 78.1 nM | 604 nM | 59.4 nM
C=CC(=O)N1Cc2c(-c3ccnc4[nH]cc(C)c34)c(-c3ccc(F)cc3)nn2C[C@@H]1C [Example 251, 1-[(6S)-2-(4-fluorophenyl)-6-methyl-3-(3-methyl-1H-pyrrolo[2,3-b]pyridin-4-yl)-6,7-dihydropyrazolo[1,5-a]pyrazin-5(4H)-yl]prop-2-en-1-one] | 40.9 nM | 7.23 nM | 24.3 nM
Cc1c[nH]c2nccc(-c3c(-c4ccc(C(F)(F)F)cc4)nn4c3CN(C(=O)/C=C/CN(C)C)[C@@H](C)C4)c12 [Example 254, (2E)-4-(dimethylamino)-1-[(6S)-6-methyl-3-(3-methyl-1H-pyrrolo[2,3-b]pyridin-4-yl)-2-[4-(trifluoromethyl)phenyl]-6,7-dihydropyrazolo[1,5-a]pyrazin-5(4H)-yl]but-2-en-1-one] | 36 nM | 437 nM | 39.9 nM
Cc1c[nH]c2nccc(-c3c(-c4ccc(F)cc4)nn4c3CN(C(=O)/C=C/CN(C)C)[C@@H](C)C4)c12 [Example 257, (2E)-4-(dimethylamino)-1-[(6S)-2-(4-fluorophenyl)-6-methyl-3-(3-methyl-1H-pyrrolo[2,3-b]pyridin-4-yl)-6,7-dihydropyrazolo[1,5-a]pyrazin-5(4H)-yl]but-2-en-1-one] | 69.7 nM | 20.8 nM | 30.7 nM
C=CC(=O)N1Cc2c(-c3ccnc4[nH]cc(C)c34)c(-c3ccc(C(F)(F)F)cc3)nn2C[C@H]1C [Example 260, 1-[(6R)-6-methyl-3-(3-methyl-1H-pyrrolo[2,3-b]pyridin-4-yl)-2-[4-(trifluoromethyl)phenyl]-6,7-dihydropyrazolo[1,5-a]pyrazin-5(4H)-yl]prop-2-en-1-one] | 82.9 nM | 1280 nM | 101 nM
C=CC(=O)N1Cc2c(-c3ccnc4[nH]cc(C)c34)c(-c3ccc(F)cc3)nn2C[C@H]1C [Example 263, 1-[(6R)-2-(4-fluorophenyl)-6-methyl-3-(3-methyl-1H-pyrrolo[2,3-b]pyridin-4-yl)-6,7-dihydropyrazolo[1,5-a]pyrazin-5(4H)-yl]prop-2-en-1-one] | 112 nM | 24.6 nM | 81 nM
Cc1c[nH]c2nccc(-c3c(-c4ccc(C(F)(F)F)cc4)nn4c3CN(C(=O)/C=C/CN(C)C)[C@H](C)C4)c12 [Example 266, (2E)-4-(dimethylamino)-1-[(6R)-6-methyl-3-(3-methyl-1H-pyrrolo[2,3-b]pyridin-4-yl)-2-[4-(trifluoromethyl)phenyl]-6,7-dihydropyrazolo[1,5-a]pyrazin-5(4H)-yl]but-2-en-1-one] | 462 nM | 3580 nM | 121 nM
Cc1c[nH]c2nccc(-c3c(-c4ccc(F)cc4)nn4c3CN(C(=O)/C=C/CN(C)C)[C@H](C)C4)c12 [Example 269, (2E)-4-(dimethylamino)-1-[(6R)-2-(4-fluorophenyl)-6-methyl-3-(3-methyl-1H-pyrrolo[2,3-b]pyridin-4-yl)-6,7-dihydropyrazolo[1,5-a]pyrazin-5(4H)-yl]but-2-en-1-one] | 138 nM | 38.2 nM | 128 nM
C=CC(=O)N1Cc2c(-c3ccncc3)c(-c3ccc(Cl)cc3F)nn2C[C@@H]1C [Example 270, 1-[(6S)-2-(4-chloro-2-fluorophenyl)-6-methyl-3-(pyridin-4-yl)-6,7-dihydropyrazolo[1,5-a]pyrazin-5(4H)-yl]prop-2-en-1-one] | 0.216 nM | 1.03 nM | 11.5 nM
C=CC(=O)N1Cc2c(-c3ccncc3)c(-c3ccc(Cl)cc3F)nn2C[C@H]1C [Example 271, 1-[(6R)-2-(4-chloro-2-fluorophenyl)-6-methyl-3-(pyridin-4-yl)-6,7-dihydropyrazolo[1,5-a]pyrazin-5(4H)-yl]prop-2-en-1-one] | 0.132 nM | 0.351 nM | 225 nM
C=CC(=O)N1CCn2nc(Nc3ccccc3)c(-c3ccncc3)c2C1 [Example 272, 1-[2-anilino-3-(pyridin-4-yl)-6,7-dihydropyrazolo[1,5-a]pyrazin-5(4H)-yl]prop-2-en-1-one] | 2.35 nM | 10.4 nM | 87.8 nM
CN(C)C/C=C/C(=O)N1CCn2nc(Nc3ccccc3)c(-c3ccncc3)c2C1 [Example 273, (2E)-1-[2-anilino-3-(pyridin-4-yl)-6,7-dihydropyrazolo[1,5-a]pyrazin-5(4H)-yl]-4-(dimethylamino)but-2-en-1-one] | 3.94 nM | 21.6 nM | 531 nM
C=CC(=O)N1Cc2c(-c3ccncc3)c(-c3ccc4sccc4c3)nn2C[C@@H]1C [Example 276, 1-[(6S)-2-(1-benzothiophen-5-yl)-6-methyl-3-(pyridin-4-yl)-6,7-dihydropyrazolo[1,5-a]pyrazin-5(4H)-yl]prop-2-en-1-one] | 0.0909 nM | 0.157 nM | 6.22 nM
